Laboratory results published in ChEMBL document CHEMBL4020791, “Synthesis and anti-proliferative activity of a small library of 7-substituted 5H-pyrrole [1,2-a][3,1]benzoxazin-5-one derivatives” (Bioorg Med Chem Lett, 2017).
Activity calls are given as the source filed them. The rule behind the calls is not given here.

Tests used:
MDA-MB-231 [1] = assay: Antiproliferative activity against human MDA-MB-231 cells at 50 uM after 72 hrs by MTT assay; type: functional, cell-based
MCF7 [2] = assay: Antiproliferative activity against human MCF7 cells at 50 uM after 72 hrs by MTT assay; type: functional, cell-based
SK-BR-3 [3] = assay: Antiproliferative activity against human SKBR3 cells at 50 uM after 72 hrs by MTT assay; type: functional, cell-based
SK-BR-3 [4] = assay: Cytotoxicity against human SKBR3 cells assessed as reduction in cell viability after 72 hrs by MTT assay; type: functional, cell-based; conditions: SK-BR-3, 72 h
MCF7 [5] = assay: Cytotoxicity against human MCF7 cells assessed as reduction in cell viability after 72 hrs by MTT assay; type: functional, cell-based; conditions: MCF7, 72 h
MCF-10A = assay: Cytotoxicity against human MCF10A after 72 hrs by MTT assay; type: cell-based
MDA-MB-231 [6] = assay: cells; conditions: Homo sapiens, MDA-MB-231, 72 h
Description: Cytotoxicity against human MDA-MB-231 cells assessed as reduction in cell viability after 72 hrs by MTT assay

MCF7 [7] = assay: Change in cyclin D1 levels in human MCF7 cells at 1 to 10 uM after 24 hrs by Western blot analysis; type: functional, cell-based
MCF7 [8] = assay: Increase in p21waf1/cip1 protein expression in human MCF7 cells at 1 to 10 uM after 24 hrs by immunoblot method; type: functional, cell-based
MCF7 [9] = assay: Induction of apoptosis in human MCF7 cells assessed as increase in cleaved PARP-1 expression at 1 to 10 uM after 24 hrs by immunoblot method; type: functional, cell-based
MCF7 [10] = assay: Cell cycle arrest in human MCF7 cells assessed as accumulation at S phase at 10 uM after 24 hrs by propidium iodide-staining based FACS analysis (reference value: 22.6%); type: functional
MCF7 [11] = assay: Increase in p53 expression in human MCF7 cells at 1 to 10 uM after 24 hrs by immunoblot method; type: functional, cell-based
MCF7 [12] = assay: Cell cycle arrest in human MCF7 cells assessed as accumulation at S phase after 24 hrs by propidium iodide-staining based FACS analysis; type: functional
MCF7 [13] = assay: Cell cycle arrest in human MCF7 cells assessed as accumulation at G2/M phase at 5 uM after 24 hrs by propidium iodide-staining based FACS analysis (reference value: 6.3%); type: functional
MCF7 [14] = assay: Cell cycle arrest in human MCF7 cells assessed as accumulation at G2/M phase at 10 uM after 24 hrs by propidium iodide-staining based FACS analysis (reference value: 6.3%); type: functional
MCF7 [15] = assay: Cell cycle arrest in human MCF7 cells assessed as accumulation at G0/G1 phase at 10 uM after 24 hrs by propidium iodide-staining based FACS analysis (reference value: 71.1%); type: functional
MCF7 [16] = assay: Cell cycle arrest in human MCF7 cells assessed as accumulation at G0/G1 phase at 5 uM after 24 hrs by propidium iodide-staining based FACS analysis (reference value: 71.1%); type: functional
MCF7 [17] = assay: Cell cycle arrest in human MCF7 cells assessed as accumulation at S phase at 5 uM after 24 hrs by propidium iodide-staining based FACS analysis (reference value: 22.6%); type: functional

Row | SMILES | IC50 (MDA-MB-231 [6]) [µM] | Activity (MDA-MB-231 [1]) | Activity (MCF7 [2]) | Activity (SK-BR-3 [3]) | IC50 (SK-BR-3 [4]) [µM] | IC50 (MCF7 [5]) [µM] | IC50 (MCF-10A) [µM] | also measured
1 | O=c1oc2cccn2c2ncccc12 |  | Active | Active | Active |  |  |  | 
2 | O=c1oc2cccn2c2cc3ccccc3cc12 |  | Active | Active | Active |  |  |  | 
3 | O=c1oc2cccn2c2ccc(-c3ccccc3)cc12 | 93.5 |  |  |  | 61 | 66.5 | 180 | 
4 | O=c1oc2cccn2c2ccccc12 |  | Active | Active | Active |  |  |  | 
5 | O=c1oc2cccn2c2ccc(Br)cc12 | 217 | Active | Active | Active | 126 | 123 | 262 | 

The remaining compounds from weak to strong by IC50 (MDA-MB-231 [6]), led by results:

Row | IC50 (MDA-MB-231 [6]) [µM] | SMILES | Activity (MDA-MB-231 [1]) | Activity (MCF7 [2]) | Activity (SK-BR-3 [3]) | IC50 (SK-BR-3 [4]) [µM] | IC50 (MCF7 [5]) [µM] | IC50 (MCF-10A) [µM] | also measured
6 | 78.9 | O=c1oc2cccn2c2ccc(-c3cccnc3O)cc12 |  |  |  | 72 | 60.9 | 154 | 
7 | 73 | O=c1oc2cccn2c2ccc(-c3ccc(C(F)(F)F)nc3)cc12 |  |  |  | 46.8 | 43.1 | 155 | 
8 | 65 | COC(=O)c1ccc(-c2ccc3c(c2)c(=O)oc2cccn23)cc1 |  |  |  | 59.3 | 48.7 | 162 | 
9 | 31 | O=c1oc2cccn2c2ccc(-c3ccc(O)cc3)cc12 |  |  |  | 27 | 18.5 | 79.8 | 
10 | 10 | O=c1oc2cccn2c2ccc(-c3ccc(-c4ccccc4)cc3)cc12 |  |  |  | 9.2 | 9.03 | > 250 | Activity (MCF7 [7]): Active; Activity (MCF7 [8]): Active; Activity (MCF7 [9]): Active; Activity (MCF7 [10]): 18.8%; Activity (MCF7 [11]): Active; Activity (MCF7 [12]): Dose-dependent effect; Activity (MCF7 [13]): 7.8%; Activity (MCF7 [14]): 8.4%; Activity (MCF7 [15]): 72.8%; Activity (MCF7 [16]): 76.6%; Activity (MCF7 [17]): 15.6%
11 | 10 | COc1cccc2c1C(=O)c1c(O)c3c(c(O)c1C2=O)C[C@@](O)(C(=O)CO)C[C@@H]3O[C@H]1C[C@H](N)[C@H](O)[C@H](C)O1 [DOXORUBICIN] |  |  |  | 8.48 |  | 12.5 | 
